The values that follow come from patent US6913935B1, “Multiple assay method” (Amersham Biosciences UK Limited, priority 1998, dated 2005).

The experiment has as its target streptavidin (Streptomyces avidinii, UniProt P22629). Put plainly: Competition of Cy-5 labelled biotin binding to streptavidin coated beads, mixed wells analysed by flow cytometry. The following applies: well 2, bead type B (purple fluor), buffer containing biotin added before Cy-5 labelled biotin; compared with well 1 (buffer only). How it is done:
Streptavidin coated bead type A (yellow fluor) and bead type B (purple fluor) were pipetted into two separate wells of a microtitre plate, such that well 1 contained bead A and well 2 contained bead B. Buffer was added to well 1 and buffer containing biotin was added to well 2. Following mixing arid incubation a solution of Cy-5 labelled biotin in buffer was added to both wells. Following further incubation the contents of well 1 and well 2 were combined and the mixture analysed by flow cytometry.

Chain of streptavidin (P22629 25-183, species assumed): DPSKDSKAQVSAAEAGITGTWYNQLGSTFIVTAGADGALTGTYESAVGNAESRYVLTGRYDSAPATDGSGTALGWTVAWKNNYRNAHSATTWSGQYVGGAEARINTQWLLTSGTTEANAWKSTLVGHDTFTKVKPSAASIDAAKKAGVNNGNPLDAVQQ

On to `O=C(O)CCCC[C@@H]1SC[C@@H]2NC(=O)N[C@@H]21` [biotin], for which the “Cy-5 fluorescence associated with bead type (Cy-5-biotin binding to streptavidin on the bead surface)” value is recorded as “low Cy-5-biotin binding”.
